Data: publication PMC9589286, “Ruthenium polypyridine complexes with triphenylamine groups as antibacterial agents against Staphylococcus aureus with membrane-disruptive mechanism” (Frontiers in Chemistry, 2022)

Assays:
[1] = tested on: Galleria mellonella; experiment: Toxicity in insect model Galleria mellonella; assay type: in vivo; conditions: 64 mg kg^−1, larvae, 120 h
Procedure: Based on the excellent antibacterial effect of Ru-3 in vitro, its biosafety was further evaluated. Firstly, the hemolytic activity of ruthenium complexes on rabbit red blood cells was measured to study their toxicity. […] In view of its good compatibility with mammalian red blood cells, the toxicity of Ru-3 to eukaryotes was also studied. Herein, Ru-3 was tested with Gallery melonella larvae. […] When the concentration of Ru-3 was 64 mg kg^−1, the survival rate was still 75%.
FIGURE 15 Test results of Ru compounds toxicity (A) % hemolysis at 256 μg ml^−1 of Ru compounds. (B) Kaplan-Meier survival curves. […] The larvae were incubated at 37.5°C and live/dead scores were conducted at 120 h (C) H&E staining images of the infected tissues with different treatments.

[2] = Partition coefficient, shake flask 1-octanol/PBS; assay type: physicochemical
Procedure: The partition coefficients of all complexes were determined by standard shake flask method in 1-octanol and buffer liquid system ([Yang et al., 2021]). In brief, the octanol/water partition coefficient is obtained by the incubation of 2 ml of 25 μg ml^−1 ruthenium complex 1-octanol and 2 ml PBS samples. After shaking the solution for 6 h, the samples were stood for 2 h. The absorbance of octanol complex at 282 nm before and after oscillation was measured. The absorbance of 1-octanol before oscillation minus the absorbance of 1-octanol after oscillation is the absorbance of the complex in water. Each experiment was repeated three times. The partition coefficient is reported as the number of octanol divided by the number of water.

[3] = tested on: Staphylococcus aureus; experiment: DiSC3(5) and DAPI/PI fluorescence staining; assay type: cell-based; conditions: 4 μg ml^−1, 2 h
Procedure: Firstly, S. aureus was cultured in TSB medium to exponential phase. Exponential growth bacteria were collected by centrifugation at 5000 rpm for 2 min, then washed with PBS and diluted to OD600 value of 0.3. Secondly, Ru-3 (4 μg ml^−1) was added to the bacterial suspension solution and incubated at 37°C for 2 h, then the supernatant was removed by centrifuging. Thirdly, the bacterial was washed with PBS for three times and suspendedin 500 μL PBS. Subsequently, adding 20 μL DiSC3(5) (30 μM), incubating for 1 h under dark conditions. For DAPI and PI, adding 20 μL DAPI (10 μg ml^−1), incubating for 15 min under dark conditions. Next, adding 20 μL PI (15 μg ml^−1) in the same tube, and incubating for 15 min under dark conditions. After that, centrifuge, removing the supernatant. Eventually, suspending with 500 uL PBS and 20 μL samples were transfered on glass slides and observed under fluorescent cell imager.

[4] = tested on: Staphylococcus aureus biofilm; experiment: Biofilm formation, crystal violet staining; assay type: cell-based
Procedure: 24 well plate was used for biofilm determination. The overnight cultured Staphylococcus aureus strain was diluted 1000 times with fresh TSB medium. Then 2 ml of that diluted bacterial solution was mixed with 500 µL Ru-3 of different concentrations in a 24 well plate. After incubation at 37°C for 48 h, the bacterial suspension was removed and the plate was washed three times with PBS. The adherent bacteria were dried overnight at 37°C and then dyed through 0.1% crystal violet solution. After 2 min, taking out the crystal violet solution and wash the plate with PBS again. And then, adding 1 ml acetic acid and 1 ml water, the formation of biofilm can be determined by monitoring the absorbance at 595 nm.

## [Ru(dmb)2PMA] (PF6)2 [Ru-3]
[1]
  survival rate: 75%
[2]
  LgP: 1.79
  logD o/w: ca. 1.7885
[3]
  DAPI/PI fluorescence: blue and red fluorescence
  membrane depolarization, DiSC3(5) fluorescence: strong green fluorescence
[4]; 1 μg ml^−1, 48 h
  biofilm formation reduced by: 27%
[4]; 1 μg/mL
  Nomalized Biofilm formation: 73%
[4]; 2 μg ml^−1, 48 h
  biofilm formation reduced by: 41%
[4]; 2 μg/mL
  Nomalized Biofilm formation: 59%
